Measurements published in paper PMC11786100, “Chronic GIPR agonism results in pancreatic islet GIPR functional desensitisation” (Molecular Metabolism, 2025).
pEC50: −log10 of the molar value. Like-named read-outs stand apart in the source and are kept apart here.

What was measured:
dispersed islet cells = assay: cADDis cAMP concentration-response in dispersed islets; type: cell-based, mouse; conditions: three-parameter fit, n=5, read-out: calculated EC50, cAMP in dispersed islets
Protocol: (§1) Primary cultures of mouse hypothalamic neurons and dispersed pancreatic islets were transduced with the Green Up cADDis biosensor (Montana Molecular, US). Pancreatic islets from CAMPER^Pdx−1-CreERT2 and CAMPER^Som-Cre mice were not transduced. Cells were pre-treated with peptides as specified, dissolved in culture media. Following 4 h or overnight incubation and a 1-hour washout period, cells were imaged using an epifluorescence microscope at baseline (t = 3 min), following peptide addition (t = 10 min, unless specified otherwise), and following 3-isobutyl-1-methylxanthine (IBMX) (500 μM) and forskolin (FSK) (50 μM) addition (t = 3 min) to maximally stimulate the sensor. In pre-treatment experiments, islet cell fluorescence was normalised to the IBMX/FSK response which was set as 100%. In non-pre-treatment experiments, islet and neuronal cell fluorescence was normalised to both the baseline and IBMX/FSK response. The area-under-the-curve (AUC) for each cell was quantified. Full details of isolation, transduction, plating, imaging and image analysis is provided in the supplementary methods.
Dispersed islets: A cell suspension of dispersed islets in RPMI-1640 + 10% FBS + 1% P/S (islet complete media) was seeded onto square 96 well µ-plates (Ibidi, UK), coated with 0.01% poly-D-lysine hydrobromide (Sigma-Aldrich, UK) and 25 µg/ml mouse laminin (Thermo Fisher, UK). For cADDis experiments, cells were transduced with the Green Up cADDis biosensor (15 μL of cADDis, 1.5 μL of sodium butyrate per well: Montana Molecular, US). Cells were incubated overnight (37°C, 95%:5% O2:CO2 ratio).
Cells were imaged in Krebs buffer with 6 mM glucose and 0.1% BSA (unless 10% FBS was specified) at 37°C using an automated epifluorescence microscope (modified Nikon Ti-2E with LED illumination). Multiple fields of view (FOV) were imaged in parallel (for islets, multiple wells of a 96 well plate were imaged in parallel), allowing hundreds to thousands of cells to be imaged every minute throughout the time course. For all acquisitions, the first three minutes were baseline recording pre-peptide addition and the last three minutes were a positive control following IBMX (500 μM) and forskolin (50 μM) addition to maximally stimulate the sensor.
cAMP quantification from the raw islet/neuronal images was performed using Fiji v1.54f (NIH). For each acquisition, a flat-field (BaSiC [3*]) correction was applied, and intensity thresholding enabled cell-containing regions to be identified as regions-of-interest (ROIs). The fluorescence intensity of each ROI was measured at each time point. In pre-treatment experiments, islet cell fluorescence was normalised to the maximal IBMX/FSK response which was set as 100%. For non-pre-treatment experiments, neuronal and islet cell fluorescence were normalised to both the baseline and maximal IBMX/FSK response. The AUC during peptide stimulation for each cell was quantified. Neurons with an AUC greater than 75 (representing a response 15 % of the maximum IBMX/FSK response) were deemed responder neurons.
We aimed to determine appropriate pre-treatment doses of GIPR agonists which would produce detectable cAMP responses, indicating target engagement, and were compatible with an extended incubation in complete medium, which could influence ligand availability via binding to serum proteins. We first performed concentration-response analysis in dispersed islets transduced with cADDis in the presence of 10% FBS (Figure S2A, B, D, E).
To determine a sensible re-challenge dose of GIPR agonists, a further concentration-response analysis was conducted in cADDis-transduced dispersed islets in imaging buffer (Krebs buffer + 6 mM glucose + 0.1% BSA, i.e. without FBS) (Figure S2C, F). […] Therefore, 1 μM of GIP108 and 100 nM of GIP were chosen as peri-maximal re-stimulation doses for the remaining islet cAMP assays.
GLP-1R agonist pre-treatment dose selection was performed concurrently with GIPR agonist dose selection.

[1] = Peptide stability in complete medium with dispersed islet cells (cAMP bioactivity assay); type: in vitro ADME, mouse
Protocol: AD-293 cells were added to a 12-well plate and maintained in 2 ml complete DMEM. 1 μg of specified plasmid DNA was added to each well alongside Lipofectamine 2000 (Thermo Fisher, UK). cAMP production was quantified 24 hours following transfection using homogenous time resolved fluorescence (HTRF), specifically the cAMP-Gs Dynamic 2 kit (Cisbio, France). Peptides and cells were diluted in DMEM + 1% P/S + 0.1% BSA. For peptide stability testing, cells, fresh peptide and peptide incubated with dispersed islet cells were diluted in RPMI-1640 (Thermo Fisher, UK) + 10% FBS + 1% P/S. 10 μl of peptide and 10 μl of cell suspension were added in duplicate to an opaque 96-well plate (Grenier Bio-One, Austria) and incubated at 37°C for 30 minutes. 10 μl of cAMP-d2 and anti-cAMP cryptate, both diluted in lysis buffer, were added in quick succession as per the manufacturer’s protocol. The plates were then incubated at room temperature for 45 minutes and read using the SpectraMax i3x (Molecular Devices, US).
Three-parameter curve fitting was applied.

[2] = system: murine hypothalamic neurons; assay: cADDis cAMP imaging in primary hypothalamic neurons; type: cell-based, mouse; conditions: 100 nM and 1 μM, 5-minute stimulation, n=4
Protocol: as §1
Primary cultures of hypothalamic neurons were prepared from 6-week-old male and female mice as described previously [2*]. A minor difference was that the neuronal pellet was resuspended in Neurobasal-A medium containing 0.25% Glutamax, 2% B27 and 25 ng/ml NGF (all Thermo Fisher, UK) (neuronal culture media).
Hypothalamic neurons: 100 μL cell suspension of neurons in neuronal culture media was seeded on 35 mm petri dish (MatTek Corporation), pre-coated with 0.01% poly-D-lysine hydrobromide. […]
cAMP quantification from the raw islet/neuronal images was performed using Fiji v1.54f (NIH). […] The fluorescence intensity of each ROI was measured at each time point. In pre-treatment experiments, islet cell fluorescence was normalised to the maximal IBMX/FSK response which was set as 100%. For non-pre-treatment experiments, neuronal and islet cell fluorescence were normalised to both the baseline and maximal IBMX/FSK response. The AUC during peptide stimulation for each cell was quantified. […]

[3] = system: lean and HFD-induced obese mice; assay: In vivo GIPR desensitisation: IPGTT and insulin bleeds; design: species or system mouse
Protocol: (§2) In all in vivo studies, mice were randomised by body weight into groups. Mice received a 50 μL subcutaneous injection of saline (0.9% sodium chloride) or peptide at a specified dose, diluted in saline. Peptide dosing was in nmol per kg of total body weight. For the assessment of the chronic effects of GIP108, mice were injected daily for 15 days. Body composition was measured by EchoMRI on day −1 and day 15. An intraperitoneal glucose tolerance test (IPGTT) (2 g/kg) was conducted on day 14, following 6 h of fasting and 2 h after peptide injection. Non-fasting plasma leptin (ab199082, Abcam, UK), adiponectin (ab226900, Abcam, UK) and amino acids (ab65347, Abcam, UK) were measured on day 16. For the assessments of in vivo GIPR desensitisation, mice were injected at 17:00 with vehicle or GIP108 (30 nmol/kg) prior to an acute food intake study/IPGTT/insulin bleeds conducted the following day. Full details of the in vivo studies are provided in the supplementary methods.
Mice were fasted at 08:00. For all studies, 20% glucose was administered at 14:00, with the injection volume adjusted to the body weight of the mouse such that each mouse received glucose at 2 g/kg. To assess effects of GIP108 on day 14 of the chronic study, mice were dosed with saline or GIP108 at a specified dose at 12:00. […] Blood glucose measurements were taken via tail vein venesection at baseline, t=15, t=30, t=60, t=90 and t=120 mins. Glucose AUC is calculated using y=0. Glucose readings were measured in mmol/L using the same GlucoRx glucometer.
Mice were fasted at 08:00. At 14:00, mice received an intraperitoneal injection with 20% glucose, with the injection volume adjusted to the body weight of the mouse such that each mouse received glucose at 2 g/kg. […] Blood samples were taken via tail vein venesection at baseline and t=15 minutes following injection.
Leptin, adiponectin and amino acids were quantified following chronic GIP108 administration. Plasma amino acids were measured using the Abcam L-amino acid assay kit (ab65347, Abcam, UK). Plasma adiponectin was measured using the Abcam mouse adiponectin ELISA kit (ab226900, Abcam, UK). Plasma leptin was measured using the Abcam mouse leptin ELISA kit (ab199082, Abcam, UK). All assays were performed according to the manufacturer’s protocol and were read using the SpectraMax i3x Microplate Reader (Molecular Devices, US).

HFD-induced obese mice = assay: Acute fast-refeed food intake study; type: in vivo, mouse; conditions: 200 nmol/kg; vehicle and GIP108 (30 nmol/kg) pre-treated HFD-induced obese mice; n = 37–40
Protocol: as §2
Food intake was measured at t=30, t=60, t=120 and t=240 mins.

[4] = 1 μM in complete medium with dispersed islet cells, cAMP bioactivity in mouse GIPR AD-293 cells

Compound | pEC50 (dispersed islet cells; imaging buffer (Krebs buffer + 6 mM glucose + 0.1% BSA, without FBS)) | pEC50 (dispersed islet cells; in the presence of 10% FBS, stepwise addition) | stability at 4 hours [1, 4] | stability at 24 hours [1, 4] | cAMP response of hypothalamic neurons [2] | glucose tolerance during IPGTT ([3]; hGIP 50 nmol/kg with i.p. glucose, lean and HFD-induced obese mice given s.c. vehicle 21 h prior, n = 14–16) | glucose tolerance during IPGTT ([3]; hGIP 500 nmol/kg, lean and obese mice pre-treated with GIP108 (30 nmol/kg), n=6-8) | food intake, acute fast-refeed study (HFD-induced obese mice) | concentration remaining from 0.5 nM after 24 hours [1] [nM] | concentration remaining from 5 nM after 24 hours [1] [nM]
human GIP(1–42) [hGIP] | 8.20 | 7.16 | remained stable at 4 hours | not 24 hours | failed to show detectable responses | significantly improved glucose tolerance | still able to improve glucose tolerance | modest reductions in food intake |  | 
CCCCCCCCCCCCCCCC(=O)N[C@@H](CCC(=O)NCCCC[C@H](NC(=O)[C@H](C)NC(=O)[C@H](C)NC(=O)[C@H](CCC(N)=O)NC(=O)CNC(=O)[C@H](CCC(=O)O)NC(=O)[C@H](CC(C)C)NC(=O)[C@H](Cc1ccc(O)cc1)NC(=O)[C@H](CO)NC(=O)[C@H](CO)NC(=O)[C@@H](NC(=O)[C@H](CC(=O)O)NC(=O)[C@H](CO)NC(=O)[C@@H](NC(=O)[C@H](Cc1ccccc1)NC(=O)[C@@H](NC(=O)CNC(=O)[C@H](CCC(=O)O)NC(=O)[C@H](C)NC(=O)[C@@H](N)Cc1cnc[nH]1)[C@@H](C)O)[C@@H](C)O)C(C)C)C(=O)N[C@@H](CCC(=O)O)C(=O)N[C@@H](Cc1ccccc1)C(=O)N[C@H](C(=O)N[C@@H](C)C(=O)N[C@@H](Cc1c[nH]c2ccccc12)C(=O)N[C@@H](CC(C)C)C(=O)N[C@H](C(=O)N[C@@H](CCCNC(=N)N)C(=O)NCC(=O)N[C@@H](CCCNC(=N)N)C(=O)NCC(=O)O)C(C)C)[C@@H](C)CC)C(=O)O [liraglutide] |  |  |  |  |  |  |  |  | 0.12 | 0.97
